Where two headings read alike, the source gives them in different places.
Legend:
[1] = cited from earlier work
[2] = system: wild-type (non-protease inhibitor-resistant) virus; details: cited from earlier work
[3] = human, in vivo, 24 h
Procedure: (§1) Plasma samples were frozen and stored at – 80 °C until analysis.
(§2) Addition of elvitegravir and cobicistat to the method was partly validated, including selectivity, linearity, accuracy and recovery, inter- and intra-run repeatability, and stability.
(§3) Elvitegravir and cobicistat concentrations were compared to historical controls.

clinical = details: human, in vivo, Elvitegravir Ctrough,ss, individual patients
Procedure: as §1, §2, §3

[4] = 60 subjects, darunavir 800 mg/cobicistat 150 mg with two NRTIs
[5] = population PK data for E/C/F/TDF, n = 419

For `CC(C)CN(C[C@@H](O)[C@H](Cc1ccccc1)NC(=O)O[C@H]1CO[C@H]2OCC[C@H]21)S(=O)(=O)c1ccc(N)cc1` [darunavir], the “Darunavir Cmax, mean” value [1, 4] is listed as 7663 ng/mL, the “Darunavir tmax, median” value [1, 4] is listed as 3.5 h and the “Half maximal effective concentration (EC50)” value ([2]; wild-type (non-protease inhibitor-resistant) virus) is listed as 0.055 µg/mL. The “Protein-adjusted 50% inhibitory concentration (IC50)” value ([2]; wild-type virus) was 0.055 µg/mL.

In the case of `COC(=O)N[C@H](C(=O)N[C@@H](Cc1ccccc1)[C@@H](O)CN(Cc1ccc(-c2ccccn2)cc1)NC(=O)[C@@H](NC(=O)OC)C(C)(C)C)C(C)(C)C` [atazanavir], the “Effect of coadministration with elvitegravir/cobicistat on atazanavir trough levels” value ([1]; human, in vivo) is given as “significant lowering of atazanavir trough levels”.

In the case of `CC(C)c1nc(CN(C)C(=O)N[C@@H](CCN2CCOCC2)C(=O)N[C@H](CC[C@H](Cc2ccccc2)NC(=O)OCc2cncs2)Cc2ccccc2)cs1` [cobicistat], the “Cobicistat 24-h level, mean” value ([1]; 59 HIV-infected patients, darunavir/cobicistat with emtricitabine and tenofovir DF) is given as 33 ng/mL, the “Cobicistat C0h, mean” value [1, 4] is given as 76 ng/mL and the “Cobicistat Cmax, mean” value [1, 4] is given as 991 ng/mL. For the same compound, the “Cobicistat tmax, median” value [1, 4] was 3.5 h and the “Cobicistat 24-h concentration, mean” value ([1]; patients taking E/C/F/TDF with darunavir) was 20.2 ng/mL.

For `COc1cc2c(cc1Cc1cccc(Cl)c1F)c(=O)c(C(=O)O)cn2[C@H](CO)C(C)C` [elvitegravir], the “Elvitegravir Ctrough,ss relative to protein-adjusted IC95 (45 ng/mL)” value [3] is given as “more than 2 fold”, the “Elvitegravir Ctrough,ss, individual patients” value [3] is given as 82 ng/mL and the “Elvitegravir Ctrough,ss, mean” value ([1]; E/C/F/TAF + DRV, N 15) is given as 464 ng/mL. The “Elvitegravir Ctrough,ss, mean” value ([1]; E/C/F/TDF + DRV, N 24) was 234 ng/mL, the “Elvitegravir Ctrough,ss, mean” value ([1]; E/C/F/TDF without darunavir, N 32) was 250 ng/mL and the “Elvitegravir Ctrough,ss, mean” value ([1]; E/C/F/TDF without darunavir, N 419, population pharmacokinetic estimate) was 451 ng/mL. For the same compound, the “Elvitegravir Cmax, mean” value [1, 5] was 1731 ng/mL, the Elvitegravir tmax [1, 5] was 4.0 h and the “Protein-adjusted 95% inhibitory concentration (IC95)” value ([2]; wild type virus) was 0.045 µg/mL. It also gave a concentration at 24 h (clinical) of under 80 ng/mL.

In the case of `CC(C)OC(=O)[C@H](C)N[P@](=O)(CO[C@H](C)Cn1cnc2c(N)ncnc21)Oc1ccccc1` [TAF, tenofovir alafenamide], the “Plasma concentrations of TAF” value ([1]; PK substudy of E/C/F/TAF plus darunavir switch study) is listed as “at the lower end of the efficacious range”.
